# Results from patent publication US7879876B2, “Sulfonamide derivatives and use thereof for the modulation of metalloproteinases” (Merck Serono SA, priority 2005, dated 2011).
# Experiments:
# gelatinase A (MMP-2) = target: T1, gelatinase A (MMP-2) (Homo sapiens, UniProt P08253); experiment: MMP-2 enzyme inhibition assay (coumarin-labelled peptide substrate); assay type: biochemical; conditions: read-out: IC50 MMP2
# T1 sequence (P08253 110-660): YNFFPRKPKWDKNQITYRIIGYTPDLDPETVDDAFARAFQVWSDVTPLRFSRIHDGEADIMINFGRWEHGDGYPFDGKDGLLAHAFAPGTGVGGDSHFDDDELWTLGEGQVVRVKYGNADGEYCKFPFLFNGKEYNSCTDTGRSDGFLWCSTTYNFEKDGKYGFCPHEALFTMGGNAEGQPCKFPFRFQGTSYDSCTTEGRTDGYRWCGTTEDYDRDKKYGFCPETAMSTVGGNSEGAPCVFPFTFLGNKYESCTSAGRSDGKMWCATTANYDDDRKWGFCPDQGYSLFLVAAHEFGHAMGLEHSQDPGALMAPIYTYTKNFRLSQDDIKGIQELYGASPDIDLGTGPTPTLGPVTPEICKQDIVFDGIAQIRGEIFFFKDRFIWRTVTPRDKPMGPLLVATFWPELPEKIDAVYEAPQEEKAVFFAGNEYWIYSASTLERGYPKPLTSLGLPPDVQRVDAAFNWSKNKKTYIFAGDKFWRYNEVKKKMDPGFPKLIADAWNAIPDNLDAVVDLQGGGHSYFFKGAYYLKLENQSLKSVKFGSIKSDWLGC
# Procedure: Compounds of the invention were tested to assess their activities as inhibitors of MMP-1, MMP-2, MMP-9, MMP-14, MMP-12 and TACE. MMP-9 Assay Protocol […]
# (§1) Stock solutions were made up as follows: Assay Butter: 100 mM Tris-HCl pH 7.6 containing 100 mM NaCl, 10 mM CaCl2, and 0.05% Brij 35.
# Substrate: 0.4 mM McaPLGLDpaAR (from Bachem) (0.437 mg/ml) stock solution in 100% DMSO (stored at −20° C.). Dilute to 8 μM in assay butter. […]
# (§2) Test Compounds were prepared initially as 10 mM compound solution in 100% DMSO, diluted to 1 mM in 100% DMSO, then serially diluted 3-fold in 100% DMSO across columns 1-10 of a 96-well microtitre plate Assay concentration range, 100 μM (column 1) to 5.1 nM (column 10).
# (§3) The assay was performed in a total volume of 100 μL per well in 96-well microtitre plates. Activated enzyme (20 μL) was added to the wells followed by 20 μL of assay butter. Appropriate concentrations of test compounds dissolved in 10 μL of DMSO were then added followed by 50 μL of McaPLGLDpaAR (8 μM, prepared by dilution of DMSO stock in assay butter). For each as say ten concentrations of test compound were examined in duplicate. Control wells lack either enzyme or test compound. The reactions were incubated at 37° C. for 2 hours. The fluorescence at 405 nm was measured immediately with an SLT Fluostar fluorometer (SL T Labinstruments GmbH, Grödig, Austria) using 320 nm excitation, without stopping the reaction.
# (§4) The effect of the test compound was determined from the dose response curve generated by the 10 duplicate concentrations of inhibitor. The IC50 (the concentration of compound required to give a 50% decrease in enzyme activity) was obtained by fitting data to the equation, Y=a+((b−a)/(1+(c/X)^d)). (Y=inhibition achieved for a particular dose; X=the dose in nM; a=minimum y or zero % inhibition; b=maximum y or 100% inhibition; c=is the IC50; d=is the slope). The result was rounded to one significant figure.
# Compounds of the invention were tested for inhibitory activity against gelatinase A (MMP-2) in an assay using a coumarin-labelled peptide substrate, (7-methoxycoumarin-4-yl)acetyl-Pro-Leu-Gly-Leu-(3-[2,4-dinitrophenyl]-L-2,3diaminopropionyl)-Ala-Arg-NH2 (Mca PLGLDpaAR) (Knight et al, 1992, above). The protocol for this assay was as described for the MMP-9 assay above.
# metalloelastase (MMP-12) = metalloelastase (MMP-12) (Homo sapiens, UniProt P39900); experiment: MMP-12 enzyme inhibition assay (coumarin-labelled peptide substrate); assay type: biochemical; conditions: read-out: IC50 MMP12
# Sequence of metalloelastase (MMP-12) (P39900 106-470): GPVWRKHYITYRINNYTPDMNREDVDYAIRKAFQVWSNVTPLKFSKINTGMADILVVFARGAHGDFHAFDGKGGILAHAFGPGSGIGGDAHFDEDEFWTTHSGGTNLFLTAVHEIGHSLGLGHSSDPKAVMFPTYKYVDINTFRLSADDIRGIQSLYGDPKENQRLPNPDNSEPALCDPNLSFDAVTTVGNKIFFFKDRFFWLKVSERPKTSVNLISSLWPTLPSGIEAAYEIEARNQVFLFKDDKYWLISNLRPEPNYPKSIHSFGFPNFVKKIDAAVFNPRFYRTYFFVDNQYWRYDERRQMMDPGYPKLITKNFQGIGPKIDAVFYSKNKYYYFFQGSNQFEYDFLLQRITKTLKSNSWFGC
# Procedure: Compounds of the invention were tested to assess their activities as inhibitors of MMP-1, MMP-2, MMP-9, MMP-14, MMP-12 and TACE. MMP-9 Assay Protocol
# Compounds of the invention were tested for inhibitory activity against 92 kDa gelatinase (MMP-9) in an assay using a coumarin-labeled peptide substrate, (7-methoxycoumarin-4-yl)acetyl-Pro-Leu-Gly-Leu-(3-[2,4-dinitrophenyl]-L-2,3diaminopropionyl)-Ala-Arg-NH2 (McaPLGLDpaAR) (Knight et al, FEBS Lett. 1992; 263-266).
# as §1
# Substrate: 0.4 mM McaPLGLDpaAR (from Bachem) (0.437 mg/ml) stock solution in 100% DMSO (stored at −20° C.). Dilute to 8 μM in assay butter.
# Enzyme: Recombinant human 92 kDa gelatinase (MMP-9; APMA (4-aminophenyl mercuric acetate)-activated if necessary) appropriately diluted in assay butter.
# as §2, §3, §4
# Compounds of the invention were tested for inhibitory activity against metalloelastase (MMP-12) in an assay using a coumarin-labelled peptide substrate, (7-methoxycoumarin-4-yl)acetyl-Pro-Leu-Gly-Leu-(3-[2,4-dinitrophenyl]-L-2,3-diaminopropionyl)-Ala-Arg-NH2 (McaPLGLDpaAR) (Knight et al, 1992, above). The protocol for this assay was as described for the MMP-9 assay above.
SMILES,IC50 (gelatinase A (MMP-2)) [µM],IC50 (metalloelastase (MMP-12)) [µM]
"O=CN(O)C(CS(=O)(=O)N1CCc2ccc(Cl)cc2C1)C1CCCC1 (stereo not drawn) [Example 21, N-{2-[(7-chloro-3,4-dihydroisoquinolin-2(1H)-yl)sulfonyl]-1-cyclopentylethyl}-N-hydroxyformamide]",0.103,0.019
"CC(C)(C)c1ccc2c(c1)CN(S(=O)(=O)CC(COCc1ccccc1)N(O)C=O)CC2 (stereo not drawn) [Example 57, N-(2-(benzyloxy)-1-{[(7-tert-butyl-3,4-dihydroisoquinolin-2(1H)-yl)sulfonyl]methyl}ethyl)-N-hydroxyformamide]",> 5,0.117
"O=CN(O)C(CS(=O)(=O)N1CCc2ccc(F)cc2C1)C1CCN(Cc2ccccc2)CC1 (stereo not drawn) [Example 53, N-{1-(1-benzylpiperidin-4-yl)-2-[(7-fluoro-3,4-dihydro-isoquinolin-2(1H)-yl)sulfonyl]ethyl}-N-hydroxyformamide]",0.298,0.106
"O=CN(O)C(CS(=O)(=O)N1CCc2ccccc2C1)C1CC1 (stereo not drawn) [Example 4, N-[1-cyclopropyl-2-(3,4-dihydroisoquinolin-2(1H)-ylsulfonyl)ethyl]-N-hydroxyformamide]",0.653,0.065
"CCCCCC(CS(=O)(=O)N1CCc2ccccc2C1)N(O)C=O (stereo not drawn) [Example 3, N-{1-[(3,4-dihydroisoquinolin-2(1H)-ylsulfonyl)methyl]hexyl}-N-hydroxyformamide]",0.676,0.014
"O=CN(O)C(CS(=O)(=O)N1CCc2ccc(-c3ccc(F)cc3)cc2C1)C1CC1 (stereo not drawn) [Example 75, N-(1-cyclopropyl-2-{[7-(4-fluorophenyl)-3,4-dihydro-isoquinolin-2(1H)-yl]sulfonyl}ethyl)-N-hydroxyformamide]",0.219,0.006
"CC(C)(C)OC(=O)N1CCC[C@@H]1[C@@H](CS(=O)(=O)N1CCc2cc(Cl)c(Cl)cc2C1)N(O)C=O (racemic) [Example 44, tert-butyl (2RS)-2-{(1SR)-2-[(6,7-dichloro-3,4-dihydro-isoquinolin-2(1H)-yl)sulfonyl]-1-[formyl(hydroxy)amino]ethyl}pyrrolidine-1-carboxylate]",0.091,0.007
"CC1(C)OC[C@H](C(CS(=O)(=O)N2CCc3ccccc3C2)N(O)C=O)O1 (stereo partly drawn) [Example 2, N-{2-(3,4-dihydroisoquinolin-2(1H)-ylsulfonyl)-1-[(4S)-2,2-dimethyl-1,3-dioxolan-4-yl]ethyl}-N-hydroxyformamide]",0.53,0.014
"O=CN(O)[C@@H](CS(=O)(=O)N1CCc2ccc(Cl)cc2C1)[C@H]1CCCO1 [Example 22, N-{(1R)-2-[(7-chloro-3,4-dihydroisoquinolin-2(1H)-yl)sulfonyl]-1-[(2R)-tetrahydrofuran-2-yl]ethyl}-N-hydroxyformamide]",0.47,0.21
"O=CN(O)C(CS(=O)(=O)N1CCc2ccc(F)cc2C1)c1ccoc1 (stereo not drawn) [Example 52, N-[2-[(7-fluoro-3,4-dihydroisoquinolin-2(1H)-yl)sulfonyl]-1-(3-furyl)ethyl]-N-hydroxyformamide]",0.298,0.046
"O=CN(O)C(COCc1ccccc1)CS(=O)(=O)N1CCc2ccc(C(F)(F)F)cc2C1 (stereo not drawn) [Example 59, N-[2-(benzyloxy)-1-({[7-(trifluoromethyl)-3,4-dihydro-isoquinolin-2(1H)-yl]sulfonyl}methyl)ethyl]-N-hydroxyformamide]",0.083,0.0075
"O=CN(O)C(CCc1ccccc1)CS(=O)(=O)N1Cc2ccccc2C1 (stereo not drawn) [Example 6, N-{1-[(1,3-dihydro-2H-isoindol-2-ylsulfonyl)methyl]-3-phenylpropyl}-N-hydroxyformamide]",0.323,0.009
"O=CN(O)C(CS(=O)(=O)N1CCc2ccc(C(F)(F)F)cc2C1)C1CC1 (stereo not drawn) [Example 83, N-(1-cyclopropyl-2-{[7-(trifluoromethyl)-3,4-dihydroisoquinolin-2(1H)-yl]sulfonyl}ethyl)-N-hydroxyformamide]",0.686,0.052
"CCCOc1ccc2c(c1)CN(S(=O)(=O)CC(CC(C)(C)C)N(O)C=O)CC2 (stereo not drawn) [Example 40, N-(3,3-dimethyl-1-{[(7-propoxy-3,4-dihydroisoquinolin-2(1H)-yl)sulfonyl]methyl}butyl)-N-hydroxyformamide]",0.077,0.015

# Further compounds by falling IC50 (gelatinase A (MMP-2)), results first:
IC50 (gelatinase A (MMP-2)) [µM],IC50 (metalloelastase (MMP-12)) [µM],SMILES
0.077,0.046,"O=CN(O)C(CCO)CS(=O)(=O)N1CCc2ccc(Cl)cc2C1 (stereo not drawn) [Example 48, N-(1-{[(7-chloro-3,4-dihydroisoquinolin-2(1H)-yl)sulfonyl]-methyl}-3-hydroxypropyl)-N-hydroxyformamide]"
0.071,0.0072,"CCC(CC)C(CS(=O)(=O)N1CCc2ccc(OC)cc2C1)N(O)C=O (stereo not drawn) [Example 38, N-(2-ethyl-1-{[(7-methoxy-3,4-dihydroisoquinolin-2(1H)-yl)sulfonyl]methyl}butyl)-N-hydroxyformamide]"
0.063,0.0031,"CC(C)c1ccc2c(c1)CCN(S(=O)(=O)CC(C1CCCC1)N(O)C=O)C2 (stereo not drawn) [Example 81, N-{1-cyclopentyl-2-[(6-isopropyl-3,4-dihydroisoquinolin-2(1H)-yl)sulfonyl]ethyl}-N-hydroxyformamide]"
0.058,0.0069,"O=CN(O)[C@H](CS(=O)(=O)N1CCc2ccc(C(F)(F)F)cc2C1)[C@H]1CCCO1 [Example 27, N-hydroxy-N-((1S)-1-[(2R)-tetrahydrofuran-2-yl]-2-{[7-(trifluoromethyl)-3,4-dihydroisoquinolin-2(1H)-yl]sulfonyl}ethyl)formamide]"
0.035,0.0042,"CCC(CC)C(CS(=O)(=O)N1CCc2cc(C(F)(F)F)ccc2C1)N(O)C=O (stereo not drawn) [Example 37, N-[2-ethyl-1-({[6-(trifluoromethyl)-3,4-dihydroisoquinolin-2(1H)-yl]sulfonyl}methyl)butyl]-N-hydroxyformamide]"
0.011,0.0055,"O=CN(O)C(CO)CS(=O)(=O)N1CCc2cc(Cl)c(Cl)cc2C1 (stereo not drawn) [Example 49, N-[2-[(6,7-dichloro-3,4-dihydroisoquinolin-2(1H)-yl)-sulfonyl]-1-(hydroxymethyl)ethyl]-N-hydroxyformamide]"
0.01,0.006,"CC1(C)OC[C@H](C(CS(=O)(=O)N2CCc3ccc(Cl)cc3C2)N(O)C=O)O1 (stereo partly drawn) [Example 19, N-{2-[(7-chloro-3,4-dihydroisoquinolin-2(1H)-yl)sulfonyl]-1-[(4S)-2,2-dimethyl-1,3-dioxolan-4-yl]ethyl}-N-hydroxyformamide]"
